PMC3116082 (Journal of the American Chemical Society, 2011)

Experiments:
Assay type in all cases: biochemical
[1] = target: T1, ThiSG (thiazole synthase) (Bacillus subtilis, UniProt O31618); test: thiazole reconstitution, strong anion exchange HPLC; settings: without TenI; ThiF, NifS, ThiO, cysteine, ATP, glycine, DXP
T1 sequence (O31618 1-256): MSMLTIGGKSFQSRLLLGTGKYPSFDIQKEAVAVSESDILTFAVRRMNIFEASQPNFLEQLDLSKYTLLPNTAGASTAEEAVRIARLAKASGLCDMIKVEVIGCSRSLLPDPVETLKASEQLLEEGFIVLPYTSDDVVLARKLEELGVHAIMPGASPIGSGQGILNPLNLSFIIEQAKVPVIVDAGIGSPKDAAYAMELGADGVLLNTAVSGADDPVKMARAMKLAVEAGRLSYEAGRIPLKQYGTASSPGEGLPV
T1 sequence (O31617 1-66 partner): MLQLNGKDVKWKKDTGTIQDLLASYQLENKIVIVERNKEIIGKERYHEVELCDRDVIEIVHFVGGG

[2] = target: thiamin phosphate synthase (ThiE) (Bacillus subtilis, UniProt P39594); test: thiochrome assay, HPLC with fluorescence detection; settings: co-substrate HMP-PP
thiamin phosphate synthase (ThiE), sequence (P39594 whole entry): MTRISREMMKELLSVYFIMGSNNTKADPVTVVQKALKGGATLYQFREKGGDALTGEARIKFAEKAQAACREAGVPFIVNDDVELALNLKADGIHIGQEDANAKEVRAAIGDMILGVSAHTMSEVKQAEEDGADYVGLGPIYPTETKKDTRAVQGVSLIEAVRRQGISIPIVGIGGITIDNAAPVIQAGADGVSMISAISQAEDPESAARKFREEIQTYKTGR

ThiO = target: T2, ThiO (Bacillus subtilis, UniProt O31616); test: H2O2 formation, HRP-coupled absorbance at […] nm; settings: 0.1-10 mM glycine, without TenI
T2 sequence (O31616 1-369): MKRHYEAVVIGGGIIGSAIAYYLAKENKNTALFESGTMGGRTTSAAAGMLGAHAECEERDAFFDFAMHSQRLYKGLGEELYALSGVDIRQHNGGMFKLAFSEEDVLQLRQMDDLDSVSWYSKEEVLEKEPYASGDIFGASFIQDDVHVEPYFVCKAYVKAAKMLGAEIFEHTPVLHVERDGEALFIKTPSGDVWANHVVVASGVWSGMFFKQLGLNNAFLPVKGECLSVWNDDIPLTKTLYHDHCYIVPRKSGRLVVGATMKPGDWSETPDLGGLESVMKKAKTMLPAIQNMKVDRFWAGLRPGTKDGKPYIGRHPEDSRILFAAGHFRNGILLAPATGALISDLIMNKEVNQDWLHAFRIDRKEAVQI

Row | Compound | thiochrome assay, HPLC with fluorescence detection [2] | other results
1 | CC1=N[C@@H](C(=O)O)S/C1=C\COP(=O)(O)O [compound 14, (R,Z)-2-(2-carboxy-4-methylthiazol-5(2H)-ylidene)ethyl phosphate] |  | thiazole reconstitution, strong anion exchange HPLC [1]: In the absence of TenI, cThz*-P was the only thiazole product formed
2 | Cc1ncsc1CCOP(=O)(O)O [compound 15, 2-(4-methylthiazol-5-yl)ethyl phosphate] | cThz-P and Thz-P are significantly better substrates than cThz*-P | 
3 | NCC(=O)O [compound 19, glycine] |  | H2O2 formation, HRP-coupled absorbance at 500 nm (ThiO): the rate of hydrogen peroxide production with increasing concentrations of glycine was unaffected by TenI
4 | Cc1nc(C(=O)O)sc1CCOP(=O)(O)O [compound 16, 2-(2-carboxy-4-methylthiazol-5-yl)ethyl phosphate] | cThz-P and Thz-P are significantly better substrates than cThz*-P | 
